Experimental data reported in patent publication US7423159B2, “Agent for preventing or treating neuropathy” (Takeda Pharmaceutical Company Limited, priority 2002, dated 2008).

Legend:
rat C6 glioma cells = experiment: GDNF production promoting action in rat C6 glioma cells (ELISA of culture supernatant); type: cell-based; details: concentration which causes 50% increase of GDNF relative to the control group, cultured 2 days with test compound, GDNF in culture supernatant by ELISA
Description: Using rat C6 glioma cells, the GDNF production promoting action of the compound of the present invention was evaluated.
Rat C6 glioma cells (ATCC) were grown in Dulbecco's Modified Eagle's Medium (DMEM) containing 10% FBS (Fetal Bovine Serum) in a collagen type 1 coated 75 cm^2 culture flask (SUMITOMO BAKELITE Co., Ltd.) until near confluent, detached by trypsin treatment and washed once with DMEM containing 10% FBS.
The cells after washing were diluted with 10% FBS-containing DMEM to a concentration of 5×10^4/mL and seeded at 0.3 mL/well in each well of collagen type 1 coated 48 well culture dish (SUMITOMO BAKELITE Co., Ltd.). After 3 days, the culture in the culture dish was placed in a 1% BSA (bovine serum albumin, Sigma)-containing DMEM medium supplemented with various concentrations of test compound, and further cultured for 2 days. The culture supernatant was recovered and preserved at −80° C. until measurement of GDNF.
The content of GDNF in the culture supernatant was measured by the following ELISA Method.
Anti-GDNF antibody (MAB212, R&D) was diluted with TBS (Tris buffered physiological saline: 25 mmol/L Tris-HCl (pH 8.0), 150 mmol/L NaCl) to 2 μg/mL and dispensed at 0.1 mL/well to each well of a 96-well immunoplate. The 96-well immunoplate was incubated overnight at 4° C. and washed once with TBS containing Tween 20 at 0.05% (hereinafter to be abbreviated as TBST). A blocking solution (TBS containing 1% BSA and 5% sucrose) was added at 0.2 mL/well to each well after washing, and the plate was incubated at room temperature for 1 hr., after which each well was washed twice with TBST. The culture supernatant (0.1 mL) of the aforementioned C6 cells was added to each well after washing and the plate was incubated at room temperature for 3 hrs., after which the wells were washed 5 times with TBST. The 500-fold diluted anti-GDNF antibody (G2791, Promega) was added by 0.1 mL to each well after washing, incubated at room temperature for 2 hrs. and washed 5 times with TBST. A 5000-fold diluted horseradish peroxidase-labeled anti-chicken IgY antibody (G1351, Promega) was added at 0.1 mL/well to each well after washing, incubated at room temperature for 2 hrs. and washed 5 times with TBST. A substrate solution (TMB substrate solution, BIO-RAD) was added at 0.1 mL/well to each well after washing and allowed to develop color at room temperature for 8 min. To stop the reaction, 0.1 mL of 1 mol/L phosphoric acid was added to each well in coloring developing reaction. The absorbance of the reaction solution at 450 nm wavelength was measured.
In the same manner as above except the test compound was not used, the ELISA Method was performed and this was used as a control group.
Using various concentrations of GDNF (Promega), ELISA Method was performed in the same manner as above and standard line was prepared.
From the aforementioned absorbance and standard line, GDNF content in a sample was calculated and the concentration (EC50), which causes 50% increase of GDNF relative to the control group was calculated from the regression line.

PC12 cells = experiment: neuroprotective action (neurite network formation) in PC12 cells; type: cell-based; details: test compound 0.3-3.0 μmol/L, two days, DMEM with 0.5% FCS and 2 ng/mL NGF; observed under a microscope
Description: Using PC12 cells, the neuroprotective action of the compound of the present invention was evaluated.
PC12 cells were precultured for one day in a DMEM (Dulbecco's Modified Eagle's Medium) culture solution containing 10% FCS (Fetal Calf Serum) in an incubator at 37° C., 5% CO2, and seeded at 5×10^3/well in a 24 well plate (Falcon) in the same medium. After the cells adhered to the bottom surface, the culture was changed to a DMEM culture solution containing 0.5% FCS and 2 ng/mL of NGF (Wako Pure Chemical Industries, Ltd.). After culturing overnight, the test compound was added at a concentration of 0.3-3.0 μmol/L and the cells were cultured for two more days. Gultalaldehyde was added to the cultured to a final concentration of 2% and the cells were fixed for 1 hr., after which stained with a Diff-Quick (International Reagents Corporation). The cells were washed, dried with air and observed under a microscope.

[1] = Rattus norvegicus, C6 glioma, 48 h

Row | Compound | EC50 (rat C6 glioma cells; [1]) [nM] | melting point [°C] | formation of neurite network (PC12 cells) | EC50 (rat C6 glioma cells) [nM]
1 | CCOP(=O)(Cc1ccc(NC(=O)/C=C/c2cnn(C)c2-c2ccc(Cl)cc2)cc1)OCC [Example 9, (2E)-3-[5-(4-Chlorophenyl)-1-methyl-1H-pyrazol-4-yl]-N-[4-(diethylphosphonomethyl)phenyl]acrylamide] | 2500 | 217 to 218 |  | 
2 | CCOP(=O)(Cc1ccc(NC(=O)/C=C/c2cnn(C)c2-c2ccoc2)cc1)OCC [Example 147, Diethyl 4-[{(2E)-3-[5-(3-furyl)-1-methyl-1H-pyrazol-4-yl]prop-2-enoyl)amino]benzylphosphonate] | 460 | 208 to 210 |  | 
3 | Cc1nccn1Cc1ccc(NC(=O)/C=C/c2cnn(C)c2-c2ccc(F)cc2)cc1 [Example 190, (2E)-3-[5-(4-Fluorophenyl)-1-methyl-1H-pyrazol-4-yl]-N-{4-[(2-methyl-1H-imidazol-1-yl)methyl]phenyl}acrylamide] | 590 | 232 to 233 |  | 
4 | CCCC(=O)NCc1ccc(NC(=O)/C=C/c2cnn(C)c2-c2ccc(F)cc2)cc1 [Example 140, (2E)-N-{4-[(Butyrylamino)methyl]phenyl}-3-[5-(4-fluorophenyl)-1-methyl-1H-pyrazol-4-yl]acrylamide] | 220 | 259 to 260 |  | 
5 | Cn1ncc(/C=C/C(=O)Nc2ccc(CCc3cscn3)cc2)c1-c1ccc(F)cc1 [Example 91, (2E)-3-[5-(4-Fluorophenyl)-1-methyl-1H-pyrazol-4-yl]-N-{4-[2-(1,3-thiazol-4-yl)ethyl]phenyl}acrylamide] | 490 | 211 to 212 |  | 
6 | Cn1ncc(/C=C/C(=O)Nc2ccc(CS(C)(=O)=O)cc2)c1-c1ccc(F)cc1 [Example 222, (2E)-3-[5-(4-fluorophenyl)-1-methyl-1H-pyrazol-4-yl]-N-(4-[(methylsulfonyl)methyl]phenyl)acrylamide] | 120 | 251 to 252 | promoted formation of neurite network | 
7 | Cc1cccc(C(O)c2ccc(NC(=O)/C=C/c3cnn(C)c3-c3ccc(F)cc3)cc2)n1 (centres unmarked) [Example 50, (2E)-3-[5-(4-Fluorophenyl)-1-methyl-1H-pyrazol-4-yl]-N-{4-[hydroxy(6-methyl-2-pyridinyl)methyl]phenyl}acrylamide] | 400 |  |  | 
8 | CCOP(=O)(Cc1ccc(NC(=O)/C=C/c2snnc2-c2ccc(F)cc2)cc1)OCC [Example 71, (2E)-N-[4-(Diethylphosphonomethyl)phenyl]-3-[4-(4-fluorophenyl)-1,2,3-thiadiazol-5-yl]acrylamide] | 1700 | 173 to 175 |  | 
9 | Cn1ncc(/C=C/C(=O)Nc2ccc(Cn3ccnc3)cc2)c1-c1ccc(F)cc1 [Example 159, (2E)-3-[5-(4-fluorophenyl)-1-methyl-1H-pyrazol-4-yl]-N-[4-(1H-imidazol-1-ylmethyl)phenyl]acrylamide] | 120 | 213 to 214 | promoted formation of neurite network | 
10 | Cn1ncc(/C=C/C(=O)Nc2ccc(Cn3cnc4ccccc43)cc2)c1-c1ccc(F)cc1 [Example 185, (2E)-N-[4-(1H-Benzimidazol-1-ylmethyl)phenyl]-3-[5-(4-fluorophenyl)-1-methyl-1H-pyrazol-4-yl]acrylamide] | 300 | 243 to 244 | promoted formation of neurite network | 
11 | CCOP(=O)(Cc1ccc(NC(=O)/C=C/c2cnn(C)c2-c2ccc(F)cc2)cc1)OCC [Example 2, (2E)-N-[4-(Diethylphosphonomethyl)phenyl]-3-[5-(4-fluorophenyl)-1-methyl-1H-pyrazol-4-yl]acrylamide] | 400 |  | promoted formation of neurite network | 
12 | CCOP(=O)(Cc1ccc(NC(=O)/C=C/c2cncn2-c2ccc(F)cc2)cc1)OCC [Example 61, (2E)-N-[4-(Diethylphosphonomethyl)phenyl]-3-[1-(4-fluorophenyl)-1H-imidazol-5-yl]acrylamide] | 400 | 165 to 166 |  | 
13 | CCCCC1(CC)COP(=O)(Cc2ccc(NC(=O)/C=C/c3cnn(C)c3-c3ccc(F)cc3)cc2)OC1 (centres unmarked) [Example 27, (2E)-N-{4-[(5-Butyl-5-ethyl-2-oxide-1,3,2-dioxaphosphinan-2-yl)methyl]phenyl}-3-[5-(4-fluorophenyl)-1-methyl-1H-pyrazol-4-yl]acrylamide] |  |  |  | 500
14 | COP(=O)(Cc1ccc(NC(=O)/C=C/c2cnn(C)c2-c2ccc(F)cc2)cc1)OC [Example 1, (2E)-N-[4-(dimethylphosphonomethyl)phenyl]-3-[5-(4-fluorophenyl)-1-methyl-1H-pyrazol-4-yl]acrylamide] | 200 | 209 to 210 |  | 
15 | Cn1ncc(/C=C/C(=O)Nc2ccc(Cn3cncn3)cc2)c1-c1ccc(F)cc1 [Example 163, (2E)-3-[5-(4-Fluorophenyl)-1-methyl-1H-pyrazol-4-yl]-N-[4-(1H-1,2,4-triazol-1-ylmethyl)phenyl]acrylamide] | 190 | 225 to 226 |  | 
16 | Cn1ncc(/C=C/C(=O)Nc2ccc(-n3ccnc3)cc2)c1-c1ccc(F)cc1 [Example 195] |  |  |  | 120
17 | CCOP(=O)(Cc1ccc(NC(=O)/C=C/c2cnn(C)c2-c2cccs2)cc1)OCC [Example 149, Diethyl [4-({(2E)-3-[1-methyl-5-(2-thienyl)-1H-pyrazol-4-yl]prop-2-enoyl}amino)benzyl]phosphonate] | 510 | 262 to 263 | promoted formation of neurite network | 
18 | (2E)-3-[5-(4-Fluorophenyl)-1-methyl-1H-pyrazol-4-yl]-N-[4-(1-pyrrolidinylmethyl) phenyl]acrylamide [Example 193] |  |  |  | 160
19 | CCOP(=O)(Cc1ccc(NC(=O)/C=C/c2cnn(C)c2-c2ccccc2)cc1)OCC [Example 11, (2E)-N-[4-(Diethylphosphonomethyl)phenyl]-3-(1-methyl-5-phenyl-1H-pyrazol-4-yl)acrylamide] | 900 | 239 to 240 |  | 
20 | CC(=O)Cc1ccc(NC(=O)/C=C/c2cnn(C)c2-c2ccc(F)cc2)cc1 [Example 121, (2E)-3-[5-(4-Fluorophenyl)-1-methyl-1H-pyrazol-4-yl]-N-[4-(2-oxopropyl)phenyl]acrylamide] | 180 | 186 to 187 |  | 
21 | Cn1ncc(/C=C/C(=O)Nc2ccc(C(O)c3ccccn3)cc2)c1-c1ccc(F)cc1 (centres unmarked) [Example 49, (2E)-3-[5-(4-Fluorophenyl)-1-methyl-1H-pyrazol-4-yl]-N-{4-[hydroxy(2-pyridinyl)methyl]phenyl}acrylamide] | 1600 |  | promoted formation of neurite network | 
22 | CCOP(=O)(Cc1ccc(NC(=O)/C=C/c2cnn(C)c2-c2ccc(OC)cc2)cc1)OCC [Example 5, (2E)-N-[4-(Diethylphosphonomethyl)phenyl]-3-[5-(4-methoxyphenyl)-1-methyl-1H-pyrazol-4-yl]acrylamide] | 1000 | 199 to 200 |  | 
